From US20240123079A1 (Seagen Inc., priority 2021, published 2024)

What follows are compounds tested on THP1-Dual™ reporter cells (assay: THP1-Dual cell reporter assay (IRF-Lucia luciferase reporter)). Conditions: ADCs: drug linker conjugated to a targeted mAb, 48 h.
Format: cell-based, human
Procedure, shortened: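 THP1-Dual monocytic cells (~100,000/well) were exposed to compound for 24 h (ADCs 48 h). Secreted IRF-driven Lucia luciferase in the supernatant was quantified by QUANTI-Luc luminescence.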

Structure (SMILES)	EC50	EC50 (ng/mL)
CCn1nc(C)cc1C(=O)Nc1nc2cc(C(N)=O)cc(OC)c2n1C/C=C/Cn1c(NC(=O)c2cc(C)nn2CC)nc2cc(C(N)=O)cc(OCCCN(C)C(=O)[C@H](CC(C)C)NC(=O)CCN3C(=O)C=CC3=O)c21 [Compound 121]	3.0 ng/mL	
CCn1nc(C)cc1C(=O)Nc1nc2cc(C(N)=O)cc(OC)c2n1C/C=C/Cn1c(NC(=O)c2cc(C)nn2CC)nc2cc(C(N)=O)cc(OCCCN(C)C(=O)[C@H](Cc3ccccc3)NC(=O)CCN3C(=O)C=CC3=O)c21 [Compound 122]	5.6 ng/mL	
CCn1nc(C)cc1C(=O)Nc1nc2cc(C(N)=O)cc(OC)c2n1C/C=C/Cn1c(NC(=O)c2cc(C)nn2CC)nc2cc(C(N)=O)cc(OCCCN(C)C(=O)[C@H](CCC(=O)OC)NC(=O)CCN3C(=O)C=CC3=O)c21 [Compound 123]	1.6 ng/mL	
CCn1nc(C)cc1C(=O)Nc1nc2cc(C(N)=O)cc(OC)c2n1C/C=C/Cn1c(NC(=O)c2cc(C)nn2CC)nc2cc(C(N)=O)cc(OCCCN(C)C(=O)[C@H](Cc3ccc(OC)cc3)NC(=O)CCN3C(=O)C=CC3=O)c21 [Compound 124]	9.1 ng/mL	
CCn1nc(C)cc1C(=O)Nc1nc2cc(C(N)=O)cc(OC)c2n1C/C=C/Cn1c(NC(=O)c2cc(C)nn2CC)nc2cc(C(N)=O)cc(OCCCN(C)C(=O)[C@@H](NC(=O)CCN3C(=O)C=CC3=O)[C@@H](C)OC)c21 [Compound 125]	1.4 ng/mL	
CCn1nc(C)cc1C(=O)Nc1nc2cc(C(=O)O)cc(OC)c2n1C/C=C/Cn1c(NC(=O)c2cc(C)nn2CC)nc2cc(C(N)=O)cc(OCCCN(C)C(=O)CCN3C(=O)C=CC3=O)c21 [Compound 126, (E)-1-(4-(5-carbamoyl-7-(3-(3-(2,5-dioxo-2,5-dihydro-1H-pyrrol-1-yl)-N-methylpropanamido)propoxy)-2-(1-ethyl-3-methyl-1H-pyrazole-5-carboxamido)-1H-benzo[d]imidazol-1-yl)but-2-en-1-yl)-2-(1-ethyl-3-methyl-1H-pyrazole-5-carboxamido)-7-methoxy-1H-benzo[d]imidazole-5-carboxylic acid]		>10,000 ng/mL
CCn1nc(C)cc1C(=O)Nc1nc2cc(S(=O)(=O)NC)ccc2n1C/C=C/Cn1c(NC(=O)c2cc(C)nn2CC)nc2cc(C(N)=O)cc(OCCCN(C)C(=O)CCN3C(=O)C=CC3=O)c21 [Compound 128, (E)-7-(3-(3-(2,5-dioxo-2,5-dihydro-1H-pyrrol-1-yl)-N-methylpropanamido)propoxy)-2-(1-ethyl-3-methyl-1H-pyrazole-5-carboxamido)-1-(4-(2-(1-ethyl-3-methyl-1H-pyrazole-5-carboxamido)-5-(N-methylsulfamoyl)-1H-benzo[d]imidazol-1-yl)but-2-en-1-yl)-1H-benzo[d]imidazole-5-carboxamide]		>10,000 ng/mL
CCn1nc(C)cc1C(=O)Nc1nc2cc(C(N)=O)cc(OC)c2n1C/C=C/Cn1c(NC(=O)c2cc(C)nn2CC)nc2cc(C(N)=O)cc(OCCCN(C(=O)CCN3C(=O)C=CC3=O)C3CC3)c21 [Compound 133, (E)-1-(4-(5-carbamoyl-2-(1-ethyl-3-methyl-1H-pyrazole-5-carboxamido)-7-methoxy-1H-benzo[d]imidazol-1-yl)but-2-en-1-yl)-7-(3-(N-cyclopropyl-3-(2,5-dioxo-2,5-dihydro-1H-pyrrol-1-yl)propanamido)propoxy)-2-(1-ethyl-3-methyl-1H-pyrazole-5-carboxamido)-1H-benzo[d]imidazole-5-carboxamide]	12.2 ng/mL	
CCn1nc(C)cc1C(=O)Nc1nc2cc(C(N)=O)cc(OC)c2n1C/C=C/Cn1c(NC(=O)c2cc(C)nn2CC)nc2cc(C(N)=O)cc(OCCC[N+](C)(C)Cc3ccc(O[C@@H]4O[C@H](C(=O)O)[C@@H](O)[C@H](O)[C@H]4O)cc3NC(=O)CCNC(=O)CCN3C(=O)C=CC3=O)c21.O=C([O-])C(F)(F)F [Compound 134]	10.3 ng/mL	

Same assay, conditions: Homo sapiens, THP1-Dual; free compounds, 24 h, Lucia reporter signal; read-out: EC50

EC50	Structure (SMILES)
14.6 nM	CCn1nc(C)cc1C(=O)Nc1nc2cc(C(N)=O)cc(OC)c2n1C/C=C/Cn1c(NC(=O)c2cc(C)nn2CC)nc2cc(C(N)=O)cc(OCCCN(C)C(=O)[C@@H](N)CCC(=O)OC)c21 [Compound 117]
23.6 nM	CCn1nc(C)cc1C(=O)Nc1nc2cc(C(N)=O)cc(OC)c2n1C/C=C/Cn1c(NC(=O)c2cc(C)nn2CC)nc2cc(C(N)=O)cc(OCCCN(C)C(=O)[C@@H](N)Cc3ccc(OC)cc3)c21 [Compound 118]
49.9 nM	CCn1nc(C)cc1C(=O)Nc1nc2cc(C(N)=O)cc(OC)c2n1C/C=C/Cn1c(NC(=O)c2cc(C)nn2CC)nc2cc(C(N)=O)cc(OCCCN(C)C(=O)[C@@H](N)Cc3cn(C)cn3)c21 [Compound 119]
5.2 nM	CCn1nc(C)cc1C(=O)Nc1nc2cc(C(N)=O)cc(OC)c2n1C/C=C/Cn1c(NC(=O)c2cc(C)nn2CC)nc2cc(C(N)=O)cc(OCCCN(C)C(=O)[C@@H](N)[C@@H](C)OC)c21 [Compound 120]
301 nM	CCn1nc(C)cc1C(=O)Nc1nc2cc(S(=O)(=O)NC)ccc2n1C/C=C/Cn1c(NC(=O)c2cc(C)nn2CC)nc2cc(C(N)=O)cc(OCCCN(C)C(=O)OC(C)(C)C)c21 [Compound 127, tert-butyl (E)-(3-((5-carbamoyl-2-(1-ethyl-3-methyl-1H-pyrazole-5-carboxamido)-1-(4-(2-(1-ethyl-3-methyl-1H-pyrazole-5-carboxamido)-5-(N-methylsulfamoyl)-1H-benzo[d]imidazol-1-yl)but-2-en-1-yl)-1H-benzo[d]imidazol-7-yl)oxy)propyl)(methyl)carbamate]
> 10000 nM	CCn1nc(C)cc1C(=O)Nc1nc2cc(S(=O)(=O)NC)ccc2n1C/C=C/Cn1c(NC(=O)c2cc(C)nn2CC)nc2cc(C(N)=O)cc(OCCCNC)c21 [Compound 128a]
836 nM	CCn1nc(C)cc1C(=O)Nc1nc2cc(C(=O)OC)cc(OC)c2n1C/C=C/Cn1c(NC(=O)c2cc(C)nn2CC)nc2cc(C(N)=O)cc(OCCCN(C)C(=O)CCN3C(=O)CC(SC[C@H](N)C(=O)O)C3=O)c21 (stereo partly drawn) [Compound 129, S-(1-(3-((3-((5-carbamoyl-2-(1-ethyl-3-methyl-1H-pyrazole-5-carboxamido)-1-((E)-4-(2-(1-ethyl-3-methyl-1H-pyrazole-5-carboxamido)-7-methoxy-5-(methoxycarbonyl)-1H-benzo[d]imidazol-1-yl)but-2-en-1-yl)-1H-benzo[d]imidazol-7-yl)oxy)propyl)(methyl)amino)-3-oxopropyl)-2,5-dioxopyrrolidin-3-yl)-L-cysteine]
2260 nM	CCn1nc(C)cc1C(=O)Nc1nc2cc(C(=O)O)cc(OC)c2n1C/C=C/Cn1c(NC(=O)c2cc(C)nn2CC)nc2cc(C(N)=O)cc(OCCCN(C)C(=O)CCN3C(=O)CC(SC[C@H](N)C(=O)O)C3=O)c21 (stereo partly drawn) [Compound 130, 1-((E)-4-(7-(3-(3-(3-(((R)-2-amino-2-carboxyethyl)thio)-2,5-dioxopyrrolidin-1-yl)-N-methylpropanamido)propoxy)-5-carbamoyl-2-(1-ethyl-3-methyl-1H-pyrazole-5-carboxamido)-1H-benzo[d]imidazol-1-yl)but-2-en-1-yl)-2-(1-ethyl-3-methyl-1H-pyrazole-5-carboxamido)-7-methoxy-1H-benzo[d]imidazole-5-carboxylicacid]
37.4 nM	CCn1nc(C)cc1C(=O)Nc1nc2cc(C(N)=O)ccc2n1C/C=C/Cn1c(NC(=O)c2cc(C)nn2CC)nc2cc(C(N)=O)cc(OCCCN(C)C(=O)CCCCCN3C(=O)CC(SC[C@H](N)C(=O)O)C3=O)c21 (stereo partly drawn) [Compound 132, S-(1-(6-((3-((5-carbamoyl-1-((E)-4-(5-carbamoyl-2-(1-ethyl-3-methyl-1H-pyrazole-5-carboxamido)-1H-benzo[d]imidazol-1-yl)but-2-en-1-yl)-2-(1-ethyl-3-methyl-1H-pyrazole-5-carboxamido)-1H-benzo[d]imidazol-7-yl)oxy)propyl)(methyl)amino)-6-oxohexyl)-2,5-dioxopyrrolidin-3-yl)-L-cysteine]
2010 nM	CCn1nc(C)cc1C(=O)Nc1nc2cc(S(N)(=O)=O)ccc2n1C/C=C/Cn1c(NC(=O)c2cc(C)nn2CC)nc2cc(C(N)=O)cc(OCCC3CNC3)c21 [Compound 135, (E)-7-(2-(azetidin-3-yl)ethoxy)-2-(1-ethyl-3-methyl-1H-pyrazole-5-carboxamido)-1-(4-(2-(1-ethyl-3-methyl-1H-pyrazole-5-carboxamido)-5-sulfamoyl-1H-benzo[d]imidazol-1-yl)but-2-en-1-yl)-1H-benzo[d]imidazole-5-carboxamide]
> 5000 nM	CCn1nc(C)cc1C(=O)Nc1nc2cc(S(N)(=O)=O)ccc2n1C/C=C/Cn1c(NC(=O)c2cc(C)nn2C)nc2cc(C(N)=O)cc(OCCC3CNC3)c21 [Compound 136, (E)-7-(2-(azetidin-3-yl)ethoxy)-2-(1,3-dimethyl-1H-pyrazole-5-carboxamido)-1-(4-(2-(1-ethyl-3-methyl-1H-pyrazole-5-carboxamido)-5-sulfamoyl-1H-benzo[d]imidazol-1-yl)but-2-en-1-yl)-1H-benzo[d]imidazole-5-carboxamide]
1680 nM	CCn1nc(C)cc1C(=O)Nc1nc2cc(S(N)(=O)=O)ccc2n1C/C=C/Cn1c(NC(=O)c2cc(C)nn2CC)nc2cc(C(N)=O)cc(OCCCOC3CNC3)c21 [Compound 137, (E)-7-(3-(azetidin-3-yloxy)propoxy)-2-(1-ethyl-3-methyl-1H-pyrazole-5-carboxamido)-1-(4-(2-(1-ethyl-3-methyl-1H-pyrazole-5-carboxamido)-5-sulfamoyl-1H-benzo[d]imidazol-1-yl)but-2-en-1-yl)-1H-benzo[d]imidazole-5-carboxamide]
> 5000 nM	CCn1nc(C)cc1C(=O)Nc1nc2cc(S(N)(=O)=O)ccc2n1C/C=C/Cn1c(NC(=O)c2cc(C)nn2C)nc2cc(C(N)=O)cc(OCCCOC3CNC3)c21 [Compound 138]
> 4000 nM	CCn1nc(C)cc1C(=O)Nc1nc2cc(S(N)(=O)=O)ccc2n1C/C=C/Cn1c(NC(=O)c2cc(C)nn2C)nc2cc(C(N)=O)cc(OCCCNC)c21 [Compound 139]
